Measurements as given in patent publication US8772323B2, “Benzoxazole- and tetrahydrobenzoxazole-substituted pyridazinones as GPR119 agonists” (Boehringer Ingelheim International GmbH, priority 2010, dated 2014).
Where a name gives a salt, the structure may show the parent alone.

Target: human GPR119 (Homo sapiens (Human), UniProt Q8TDV5)
Assay: AlphaScreen cAMP assay in Min-6/hGPR119 cells (GPR119 activation, intracellular cAMP)
Type: cell-based
Conditions: MIN6 cells stably transfected with human GPR119; 45 minutes' incubation at RT; AlphaScreen cAMP Assay Kit
Method in brief: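 cAMP quantified by AlphaScreen after 45 min room-temperature compound exposure in HEPES/bicarbonate buffer, pH 7.4, containing 0.5 mM IBMX, 0.1% BSA and 1% DMSO final. Cells were Min-6 stably transfected with human GPR119, seeded 24 h beforehand.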

Chain of human GPR119 (Q8TDV5 whole entry): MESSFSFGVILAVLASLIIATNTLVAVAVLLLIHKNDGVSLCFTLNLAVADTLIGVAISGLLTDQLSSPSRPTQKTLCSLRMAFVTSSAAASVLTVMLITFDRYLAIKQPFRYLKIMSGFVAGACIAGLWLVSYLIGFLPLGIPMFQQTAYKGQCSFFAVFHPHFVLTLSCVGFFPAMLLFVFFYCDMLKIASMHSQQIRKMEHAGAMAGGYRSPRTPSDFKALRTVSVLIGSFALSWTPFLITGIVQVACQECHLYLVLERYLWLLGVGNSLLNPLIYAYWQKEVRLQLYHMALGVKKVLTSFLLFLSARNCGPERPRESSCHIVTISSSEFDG

Structure (SMILES)	EC50
O=C1NN=C([C@H]2CCc3nc(-c4ccccc4)oc3C2)[C@H]2C[C@@H]12 [Example 131, (1R,6S)-5-((S)-2-phenyl-4,5,6,7-tetrahydro-benzoxazol-6-yl)-3,4-diaza-bicyclo[4.1.0]hept-4-en-2-one]	7700 nM
CCC1CC(=O)NN=C1c1ccc2nc(-c3ccc(OC[C@H]4CCCN4)cc3)oc2c1 (stereo partly drawn) [Example 239, 5-ethyl-6-(2-{4-[(2R)-pyrrolidin-2-ylmethoxy]phenyl}-1,3-benzoxazol-6-yl)-2,3,4,5-tetrahydropyridazin-3-one]	1650 nM
CCC1CC(=O)NN=C1c1ccc2nc(-c3ccc(OC4CCNCC4)cc3)oc2c1 (stereo not drawn) [Example 72, 5-ethyl-6-{2-[4-(piperidin-4-yloxy)-phenyl]-benzoxazol-6-yl}-4,5-dihydro-2H-pyridazin-3-one hydrochloride]	1810 nM
CCC1CC(=O)NN=C1c1ccc2nc(-c3ccc(OCC(C)(C)N4CCOCC4)cc3)oc2c1 (stereo not drawn) [Example 232, 5-ethyl-6-{2-[4-(2-methyl-2-morpholin-4-yl-propoxy)-phenyl]-benzoxazol-6-yl}-4,5-dihydro-2H-pyridazin-3-one]	69 nM
CCC1CC(=O)NN=C1c1ccc2nc(-c3cccc(OCCN(C(C)C)C(C)C)c3)oc2c1 (stereo not drawn) [Example 154, 6-{2-[3-(2-diisopropylamino-ethoxy)-phenyl]-benzoxazol-6-yl}-5-ethyl-4,5-dihydro-2H-pyridazin-3-one]	424 nM
CCC1CC(=O)NN=C1c1ccc2nc(-c3ccc(OC(F)(F)F)cc3)oc2c1 (stereo not drawn) [Example 103, 5-ethyl-6-[2-(4-trifluoromethoxy-phenyl)-benzoxazol-6-yl]-4,5-dihydro-2H-pyridazin-3-one]	1210 nM
CCC[C@H]1C(=O)NN=C(c2ccc3nc(C4CC4)oc3c2)[C@@H]1C (stereo in doubt) [Example 253, 6-(2-cyclopropyl-benzoxazol-6-yl)-5-methyl-4-propyl-4,5-dihydro-2H-pyridazin-3-one]	299 nM
CCC1CC(=O)NN=C1c1ccc2nc(-c3ccc(OCCN4CCN(C(C)C)CC4)cc3)oc2c1 (stereo not drawn) [Example 168, 5-ethyl-6-(2-{4-[2-(4-isopropyl-piperazin-1-yl)-ethoxy]-phenyl}-benzoxazol-6-yl)-4,5-dihydro-2H-pyridazin-3-one]	3010 nM
CC[C@H]1C(c2ccc3nc(-c4ccc(OC(C)C)cc4)oc3c2)=NNC(=O)[C@@H]1C (relative stereo) [Example 178, trans-5-ethyl-6-[2-(4-isopropoxy-phenyl)-benzoxazol-6-yl]-4-methyl-4,5-dihydro-2H-pyridazin-3-one]	108 nM
CC[C@H]1CC(=O)NN=C1c1ccc2nc(-c3ccc(OC(C)C)cc3)oc2c1 [Example 192, (S)-5-ethyl-6-[2-(4-isopropoxy-phenyl)-benzoxazol-6-yl]-4,5-dihydro-2H-pyridazin-3-one]	6060 nM
Cc1c(C2=NNC(=O)C3CC23)ccc2nc(-c3ccccc3)oc12 (stereo not drawn) [Example 6, 5-(7-methyl-2-phenyl-benzoxazol-6-yl)-3,4-diaza-bicyclo[4.1.0]hept-4-en-2-one]	1700 nM
CC1CC(=O)NN=C1c1ccc2nc(-c3cccc(OCc4ccccc4)c3)oc2c1 (stereo not drawn) [Example 34, 6-[2-(3-benzyloxy-phenyl)-benzoxazol-6-yl]-5-methyl-4,5-dihydro-2H-pyridazin-3-one]	193 nM
CCC1CC(=O)NN=C1c1ccc2nc(-c3ccc(OCC4CCCCC4)cc3)oc2c1 (stereo not drawn) [Example 54, 6-[2-(4-cyclohexylmethoxy-phenyl)-benzoxazol-6-yl]-5-ethyl-4,5-dihydro-2H-pyridazin-3-one]	145 nM
CCC1CC(=O)NN=C1c1ccc2nc(-c3ccc(OCCN4CCN(C(C)=O)CC4)cc3)oc2c1 (stereo not drawn) [Example 162, 6-(2-{4-[2-(4-acetyl-piperazin-1-yl)-ethoxy]-phenyl}-benzoxazol-6-yl)-5-ethyl-4,5-dihydro-2H-pyridazin-3-one]	9120 nM
CCC1CC(=O)NN=C1c1ccc2nc(-c3cccc(OCCN4CCCC4)c3)oc2c1 (stereo not drawn) [Example 201, 5-ethyl-6-{2-[3-(2-pyrrolidin-1-yl-ethoxy)-phenyl]-benzoxazol-6-yl}-4.5-dihydro-2H-pyridazin-3-one]	3030 nM
CCC1CC(=O)NN=C1c1ccc2nc(-c3cccc(OCc4ccccc4)c3)oc2c1 (stereo not drawn) [Example 35, 6-[2-(3-benzyloxy-phenyl)-benzoxazol-6-yl]-5-ethyl-4,5-dihydro-2H-pyridazin-3-one]	148 nM
CC[C@H]1OC(=O)NN=C1N1CCc2nc(-c3ccccc3)oc2C1 [Example 206, (R)-6-ethyl-5-(2-phenyl-6,7-dihydro-4H-oxazolo[5,4-c]pyridin-5-yl)-3,6-dihydro-[1.3.4]oxadiazin-2-one]	27 nM
CCC1CC(=O)NN=C1c1ccc2nc(-c3ccc(OC4CCN(C(=O)OC(C)(C)C)CC4)cc3)oc2c1 (stereo not drawn) [Example 68, tert-butyl 4-{4-[6-(4-ethyl-6-oxo-1,4,5,6-tetrahydro-pyridazin-3-yl)-benzoxazol-2-yl]-phenoxy}-piperidin-1-carboxylate]	60 nM

Structure (SMILES)	EC50
CCC1CC(=O)NN=C1c1ccc2nc(-c3ccc(OCCN4CCN(C(=O)OC(C)(C)C)CC4)cc3)oc2c1 (stereo not drawn) [Example 165, terl-butyl 4-(2-{4-[6-(4-ethyl-6-oxo-1,4,5,6-tetrahydro-pyridazin-3-yl)-benzoxazol-2-yl]-phenoxy}-ethyl)-piperazine-1-carboxylate]	118 nM
CCC1CC(=O)NN=C1c1ccc2nc(-c3ccc(OC4CCOC4)cc3)oc2c1 (stereo not drawn) [Example 181, 5-ethyl-6-{2-[4-(tetrahydro-furan-3-yloxy)-phenyl]-benzoxazol-6-yl}-4,5-dihydro-2H-pyridazin-3-one]	156 nM
CCC1CC(=O)NN=C1c1ccc2nc(-c3cccc(OC(C)C)c3)oc2c1 (stereo not drawn) [Example 100, 5-ethyl-6-[2-(3-isopropoxy-phenyl)-benzoxazol-6-yl]-4,5-dihydro-2H-pyridazin-3-one]	442 nM
CC(C)(C)OC(=O)N1CCN(Cc2ccc(-c3nc4ccc(C5=NNC(=O)C6CC56)cc4o3)cc2)CC1 (stereo not drawn) [Example 23, tert.butyl 4-{4-[6-(5-oxo-3,4-diaza-bicyclo[4.1.0]hept-2-en-2-yl)-benzoxazol-2-yl]-benzyl}-piperazine-1-carboxylate]	1350 nM
CCC1CC(=O)NN=C1c1ccc2nc(-c3ccc(C)s3)oc2c1 (stereo not drawn) [Example 101, 5-ethyl-6-[2-(5-methyl-thiophen-2-yl)-benzoxazol-6-yl]-4,5-dihydro-2H-pyridazin-3-one]	194 nM
O=C1NN=C([C@@H]2CCc3nc(-c4ccccc4)oc3C2)[C@@H]2C[C@H]12 [Example 134, (1S,6R)-5-((R)-2-phenyl-4,5,6,7-tetrahydro-benzoxazol-6-yl)-3,4-diaza-bicyclo[4.1.0]hept-4-en-2-one]	1630 nM
CC[C@H]1C(c2ccc3nc(-c4ccccc4)oc3c2)=NNC(=O)[C@H]1C [Example 146, (4S,5R)-5-ethyl-4-methyl-6-(2-phenyl-1,3-benzoxazol-6-yl)-2,3,4,5-tetrahydropyridazin-3-one]	8850 nM
CCC[C@@H]1C(=O)NN=C(c2ccc3nc(-c4ccc(OCCCN5CCCCC5)cc4)oc3c2)[C@H]1C (relative stereo) [Example 172, trans-5-methyl-6-{2-[4-(3-piperidin-1-yl-propoxy)-phenyl]-benzoxazol-6-yl}-4-propyl-4,5-dihydro-2H-pyridazin-3-one]	755 nM
O=C1NN=C(c2ccc3nc(-c4ccc(CN5CCCCC5)cc4)oc3c2)C2CC12 (stereo not drawn) [Example 15, 5-[2-(4-piperidin-1-ylmethyl-phenyl)-benoxazol-6-yl]-3,4-diaza-bicyclo[4.1.0]hept-4-en-2-one]	701 nM
CCC[C@H]1C(=O)NN=C(c2ccc3nc(-c4cccs4)oc3c2)[C@@H]1C (relative stereo) [Example 183, trans-5-methyl-4-propyl-6-(2-thiophen-2-yl-benzoxazol-6-yl)-4,5-dihydro-2H-pyridazin-3-one]	134 nM
CCC1OC(=O)NN=C1c1ccc2nc(-c3ccccc3)oc2c1 (stereo in doubt) [Example 79, (S)-6-ethyl-5-(2-phenyl-benzoxazol-6-yl)-3,6-dihydro-[1,3,4]oxadiazin-2-one]	41 nM
O=C1NN=C(c2ccc3nc(-c4ccc(F)cc4)oc3c2)C2CCC12 (stereo not drawn) [Example 19, 5-[2-(4-fluoro-phenyl)-benzoxazol-6-yl]-3,4-diaza-bicyclo[4.2.0]oct-4-en-2-one]	469 nM
CCC1CC(=O)NN=C1c1ccc2nc(-c3cccc(OCCN4CCCCCC4)c3)oc2c1 (stereo not drawn) [Example 149, 6-{2-[3-(2-azepan-1-yl-ethoxy)-phenyl]-benzoxazol-6-yl}-5-ethyl-4,5-dihydro-2H-pyridazin-3-one]	567 nM
O=C1NN=C(c2ccc3nc(-c4ccc(CN5CCOCC5)cc4)oc3c2)C2CC12 (stereo not drawn) [Example 22, 5-[2-(4-morpholin-4-ylmethyl-phenyl)-benzoxazol-6-yl]-3,4-diaza-bicyclo[4.1.0]hept-4-en-2-one]	1750 nM
CCC1CC(=O)NN=C1c1ccc2nc(-c3cccc(OCCN4CCCCC4)c3)oc2c1 (stereo not drawn) [Example 148, 5-ethyl-6-{2-[3-(2-piperidin-1-yl-ethoxy)-phenyl]-benzoxazol-6-yl}-4,5-dihydro-2H-pyridazin-3-one]	1560 nM
O=C1CCC(c2ccc3nc(-c4ccco4)oc3c2)=NN1 [Example 112, 6-(2-furan-2-yl-benzoxazol-6-yl)-4,5-dihydro-2H-pyridazin-3-one]	1320 nM
CCC1NC(=O)NN=C1c1ccc2nc(-c3ccccc3)oc2c1 (stereo not drawn) [Example 144, 5-ethyl-6-(2-phenyl-benzoxazol-6-yl)-4,5-dihydro-2H-[1,2,4]triazin-3-one]	987 nM
CCC[C@H]1C(=O)NN=C(c2ccc3nc(-c4cc(C)cs4)oc3c2)[C@@H]1C (relative stereo) [Example 186, trans-5-methyl-6-[2-(4-methyl-thiophen-2-yl)-benzoxazol-6-yl]-4-propyl-4,5-dihydro-2H-pyridazin-3-one]	88 nM
